Test results taken from patent publication US9850283B2, “Macrocyclic inhibitors of the PD-1/PD-L1 and CD80(B7-1)/PD-L1 protein/protein interactions” (BRISTOL-MYERS SQUIBB COMPANY, priority 2013, dated 2017).
Where two headings read alike, the source gives them in different places. Positions of bridges follow the written chain, without caps; N, C: chain ends. Non-standard residues stand in square brackets, D forms with d. Residues, ends and D or L forms follow the SMILES beside them. Hyp = O=C(O)[C@@H]1C[C@@H](O)CN1; NMeNle = CCCC[C@H](NC)C(=O)O; NMeA = CN[C@@H](C)C(=O)O; Orn = NCCC[C@H](N)C(=O)O; Dab = NCC[C@H](N)C(=O)O; Dap = NC[C@H](N)C(=O)O

Tests used:
[1] = target: T1, LK35.2-hPD-L1 cells / PE-labeled PD-1-Ig (Homo sapiens, UniProt Q9NZQ7); assay: LK35.2-hPD-L1 cell binding high-content screening assay; type: cell-based; conditions: cell binding assay, cell line not given
T1 construct: expressed in transfected cells; host or cells: LK35.2 mouse B cell line
T1 sequence (Q9NZQ7 19-290): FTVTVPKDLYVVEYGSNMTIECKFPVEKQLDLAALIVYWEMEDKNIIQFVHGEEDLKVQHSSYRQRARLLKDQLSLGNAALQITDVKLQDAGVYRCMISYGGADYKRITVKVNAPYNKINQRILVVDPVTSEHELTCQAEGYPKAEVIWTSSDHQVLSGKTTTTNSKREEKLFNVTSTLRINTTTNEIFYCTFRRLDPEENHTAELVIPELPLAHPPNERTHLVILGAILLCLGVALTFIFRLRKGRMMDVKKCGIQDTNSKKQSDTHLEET
How it was run: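 Binding of PE-conjugated human PD-1-Ig (1 nM final) to human PD-L1 stably expressed on a mouse B-cell line (LK35.2) was measured by high-content imaging after washes. Compound and labeled PD-1-Ig were co-incubated 1 h at 37 °C with cells in RPMI/10% FCS.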

[2] = target: T2, Human PD-L1/PD-1 (Homo sapiens, UniProt Q9NZQ7); assay: HTRF PD-1-Ig/PD-L1-His binding assay (human PD-L1)
T2 construct: made in house; host or cells: HEK293T
T2 sequence (Q9NZQ7 with tags, fused parts or gaps): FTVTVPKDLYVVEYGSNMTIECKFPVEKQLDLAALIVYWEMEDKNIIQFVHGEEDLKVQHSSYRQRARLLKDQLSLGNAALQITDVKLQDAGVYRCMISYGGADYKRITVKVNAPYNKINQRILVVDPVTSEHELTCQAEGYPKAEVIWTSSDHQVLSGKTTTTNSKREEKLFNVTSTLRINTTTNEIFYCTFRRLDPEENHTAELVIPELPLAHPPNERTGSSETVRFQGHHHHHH
How it was run: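 Interaction of Fc-tagged soluble PD-1 with His-tagged soluble PD-L1 is monitored by time-resolved FRET. Donor is europium cryptate anti-Ig (1 nM final) and acceptor is APC anti-His (20 nM final). Assay buffer is dPBS with 0.1% BSA and 0.05% Tween-20.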

[3] = cluster symbol, read-out: CBA IC50 cluster
[4] = cluster symbol, read-out: HTRF IC50 cluster

Row | IC50 [1, 3] | IC50 [2, 4] | IC50 ([1]; value given instead of cluster, read-out: CBA IC50 value) | IC50 ([2]; value given instead of cluster, read-out: HTRF IC50 value) | SMILES
1 | 0.158 to 4.71 nM | 0.385 to 6.74 nM | – | – | CCCC[C@H]1C(=O)N(C)[C@@H](CCCC)C(=O)N[C@@H](CCCN)C(=O)N[C@H](C(=O)NCC(N)=O)CSCC(=O)N[C@@H](Cc2ccc(O)cc2)C(=O)N(C)[C@@H](C)C(=O)N[C@@H](CC(=O)O)C(=O)N2CCC[C@H]2C(=O)N[C@@H](Cc2c[nH]cn2)C(=O)N[C@@H](CCC(N)=O)C(=O)N2C[C@H](O)C[C@H]2C(=O)N[C@@H](Cc2c[nH]c3ccccc23)C(=O)N[C@@H](CO)C(=O)N[C@@H](Cc2c[nH]c3ccccc23)C(=O)N1C [Example 5114] ({CH2CO}-Y[NMeA]DPHQ[Hyp]WSW[NMeNle][NMeNle][Orn]CG-NH2; thioether N-14)
2 | 0.158 to 4.71 nM | 0.385 to 6.74 nM | – | – | CCCC[C@H]1C(=O)N(C)[C@@H](CCCC)C(=O)N[C@@H](CC(C)C)C(=O)N[C@H](C(=O)NCC(N)=O)CSCC(=O)N[C@@H](Cc2ccc(O)cc2)C(=O)N(C)[C@@H](C)C(=O)N[C@@H](CC(N)=O)C(=O)N2CCC[C@H]2C(=O)N[C@@H](CO)C(=O)N[C@@H](CCC(N)=O)C(=O)N2C[C@H](O)C[C@H]2C(=O)N[C@@H](Cc2c[nH]c3ccccc23)C(=O)N[C@@H](CO)C(=O)N[C@@H](Cc2c[nH]c3ccccc23)C(=O)N1C [Example 5115] ({CH2CO}-Y[NMeA]NPSQ[Hyp]WSW[NMeNle][NMeNle]LCG-NH2; thioether N-14)
3 | 4.78 to 72.9 nM | 0.385 to 6.74 nM | – | – | CCCC[C@H]1C(=O)N(C)[C@@H](CCCC)C(=O)N[C@@H](CO)C(=O)N[C@H](C(=O)NCC(N)=O)CSCC(=O)N[C@@H](Cc2ccc(O)cc2)C(=O)N(C)[C@@H](C)C(=O)N[C@@H](CO)C(=O)N2CCC[C@H]2C(=O)N[C@@H](CO)C(=O)N[C@@H](CC(C)C)C(=O)N2C[C@H](O)C[C@H]2C(=O)N[C@@H](Cc2c[nH]c3ccccc23)C(=O)N[C@@H](CO)C(=O)N[C@@H](Cc2c[nH]c3ccccc23)C(=O)N1C [Example 5116] ({CH2CO}-Y[NMeA]SPSL[Hyp]WSW[NMeNle][NMeNle]SCG-NH2; thioether N-14)
4 | 0.158 to 4.71 nM | 0.385 to 6.74 nM | – | – | CCCC[C@H]1C(=O)N(C)[C@@H](CCCC)C(=O)N[C@@H](CO)C(=O)N[C@H](C(=O)NCC(N)=O)CSCC(=O)N[C@@H](Cc2ccc(O)cc2)C(=O)N(C)[C@@H](C)C(=O)N[C@@H](CC(N)=O)C(=O)N2CCC[C@H]2C(=O)N[C@@H](CO)C(=O)N[C@@H](CC(C)C)C(=O)N2C[C@H](O)C[C@H]2C(=O)N[C@@H](Cc2c[nH]c3ccccc23)C(=O)N[C@@H](CO)C(=O)N[C@@H](Cc2c[nH]c3ccccc23)C(=O)N1C [Example 5118] ({CH2CO}-Y[NMeA]NPSL[Hyp]WSW[NMeNle][NMeNle]SCG-NH2; thioether N-14)
5 | 4.78 to 72.9 nM | 0.385 to 6.74 nM | – | – | CCCC[C@H]1C(=O)N(C)[C@@H](CCCC)C(=O)N[C@@H](CO)C(=O)N[C@H](C(=O)NCC(N)=O)CSCC(=O)N[C@@H](Cc2ccc(O)cc2)C(=O)N(C)[C@@H](C)C(=O)N[C@@H](CCN)C(=O)N2CCC[C@H]2C(=O)N[C@@H](CO)C(=O)N[C@@H](CCC(=O)O)C(=O)N2C[C@H](O)C[C@H]2C(=O)N[C@@H](Cc2c[nH]c3ccccc23)C(=O)N[C@@H](CO)C(=O)N[C@@H](Cc2c[nH]c3ccccc23)C(=O)N1C [Example 5119] ({CH2CO}-Y[NMeA][Dab]PSE[Hyp]WSW[NMeNle][NMeNle]SCG-NH2; thioether N-14)
6 | 0.158 to 4.71 nM | 0.385 to 6.74 nM | – | – | CCCC[C@H]1C(=O)N(C)[C@@H](CCCC)C(=O)N[C@@H](CCCCN)C(=O)N[C@H](C(=O)NCC(N)=O)CSCC(=O)N[C@@H](Cc2ccc(O)cc2)C(=O)N(C)[C@@H](C)C(=O)N[C@@H](CC(=O)O)C(=O)N2CCC[C@H]2C(=O)N[C@@H](Cc2c[nH]cn2)C(=O)N[C@@H](CCC(N)=O)C(=O)N2C[C@H](O)C[C@H]2C(=O)N[C@@H](Cc2c[nH]c3ccccc23)C(=O)N[C@@H](CO)C(=O)N[C@@H](Cc2c[nH]c3ccccc23)C(=O)N1C [Example 5120] ({CH2CO}-Y[NMeA]DPHQ[Hyp]WSW[NMeNle][NMeNle]KCG-NH2; thioether N-14)
7 | 4.78 to 72.9 nM | 6.76 to 30.3 nM | – | – | CCCC[C@H]1C(=O)N(C)[C@@H](CCCC)C(=O)N[C@@H](CO)C(=O)N[C@H](C(=O)NCC(N)=O)CSCC(=O)N[C@@H](Cc2ccc(O)cc2)C(=O)N(C)[C@@H](C)C(=O)N[C@@H](CC(N)=O)C(=O)N2CCC[C@H]2C(=O)N[C@@H](Cc2c[nH]cn2)C(=O)N[C@@H](CCC(N)=O)C(=O)N2C[C@H](O)C[C@H]2C(=O)N[C@@H](Cc2c[nH]c3ccccc23)C(=O)N[C@@H](CO)C(=O)N[C@@H](Cc2c[nH]c3ccccc23)C(=O)N1C [Example 5121] ({CH2CO}-Y[NMeA]NPHQ[Hyp]WSW[NMeNle][NMeNle]SCG-NH2; thioether N-14)
8 | – | – | 134 nM | 34.8 nM | CCCC[C@H]1C(=O)N(C)[C@@H](CCCC)C(=O)N[C@@H](CC(C)C)C(=O)N[C@H](C(=O)NCC(N)=O)CSCC(=O)N[C@@H](Cc2ccc(O)cc2)C(=O)N(C)[C@@H](C)C(=O)N[C@@H](CC(N)=O)C(=O)N2CCC[C@H]2C(=O)N[C@@H](Cc2c[nH]cn2)C(=O)NCC(=O)N2C[C@H](O)C[C@H]2C(=O)N[C@@H](Cc2c[nH]c3ccccc23)C(=O)N[C@@H](CO)C(=O)N[C@@H](Cc2c[nH]c3ccccc23)C(=O)N1C [Example 5122] ({CH2CO}-Y[NMeA]NPHG[Hyp]WSW[NMeNle][NMeNle]LCG-NH2; thioether N-14)
9 | 4.78 to 72.9 nM | 6.76 to 30.3 nM | – | – | CCCC[C@H]1C(=O)N(C)[C@@H](CCCC)C(=O)N[C@@H](CCCNC(=N)N)C(=O)N[C@H](C(=O)NCC(N)=O)CSCC(=O)N[C@@H](Cc2ccc(O)cc2)C(=O)N(C)[C@@H](C)C(=O)N[C@@H](CN)C(=O)N2CCC[C@H]2C(=O)N[C@@H](Cc2c[nH]cn2)C(=O)N[C@@H](CCC(=O)O)C(=O)N2C[C@H](O)C[C@H]2C(=O)N[C@@H](Cc2c[nH]c3ccccc23)C(=O)N[C@@H](CO)C(=O)N[C@@H](Cc2c[nH]c3ccccc23)C(=O)N1C [Example 5123] ({CH2CO}-Y[NMeA][Dap]PHE[Hyp]WSW[NMeNle][NMeNle]RCG-NH2; thioether N-14)
10 | 0.158 to 4.71 nM | 0.385 to 6.74 nM | – | – | CCCC[C@H]1C(=O)N(C)[C@@H](CCCC)C(=O)N[C@@H](CCCNC(=N)N)C(=O)N[C@H](C(=O)NCC(N)=O)CSCC(=O)N[C@@H](Cc2ccc(O)cc2)C(=O)N(C)[C@@H](C)C(=O)N[C@@H](CCCCN)C(=O)N2CCC[C@H]2C(=O)N[C@@H](Cc2c[nH]cn2)C(=O)N[C@@H](CCC(=O)O)C(=O)N2C[C@H](O)C[C@H]2C(=O)N[C@@H](Cc2c[nH]c3ccccc23)C(=O)N[C@@H](CO)C(=O)N[C@@H](Cc2c[nH]c3ccccc23)C(=O)N1C [Example 5124] ({CH2CO}-Y[NMeA]KPHE[Hyp]WSW[NMeNle][NMeNle]RCG-NH2; thioether N-14)
11 | 4.78 to 72.9 nM | 0.385 to 6.74 nM | – | – | CCCC[C@H]1C(=O)N(C)[C@@H](CCCC)C(=O)NCC(=O)N[C@H](C(=O)NCC(N)=O)CSCC(=O)N[C@@H](Cc2ccc(O)cc2)C(=O)N(C)[C@@H](C)C(=O)N[C@@H](CC(N)=O)C(=O)N2CCC[C@H]2C(=O)N[C@@H](Cc2c[nH]cn2)C(=O)N[C@@H](CCC(N)=O)C(=O)N2C[C@H](O)C[C@H]2C(=O)N[C@@H](Cc2c[nH]c3ccccc23)C(=O)N[C@@H](CO)C(=O)N[C@@H](Cc2c[nH]c3ccccc23)C(=O)N1C [Example 5125] ({CH2CO}-Y[NMeA]NPHQ[Hyp]WSW[NMeNle][NMeNle]GCG-NH2; thioether N-14)
12 | 4.78 to 72.9 nM | 0.385 to 6.74 nM | – | – | CCCC[C@H]1C(=O)N(C)[C@@H](CCCC)C(=O)N[C@@H](CCC(=O)O)C(=O)N[C@H](C(=O)NCC(N)=O)CSCC(=O)N[C@@H](Cc2ccc(O)cc2)C(=O)N(C)[C@@H](C)C(=O)N[C@@H](CC(N)=O)C(=O)N2CCC[C@H]2C(=O)N[C@@H](Cc2c[nH]cn2)C(=O)N[C@@H](CCC(N)=O)C(=O)N2C[C@H](O)C[C@H]2C(=O)N[C@@H](Cc2c[nH]c3ccccc23)C(=O)N[C@@H](CO)C(=O)N[C@@H](Cc2c[nH]c3ccccc23)C(=O)N1C [Example 5126] ({CH2CO}-Y[NMeA]NPHQ[Hyp]WSW[NMeNle][NMeNle]ECG-NH2; thioether N-14)
13 | 4.78 to 72.9 nM | 0.385 to 6.74 nM | – | – | CCCC[C@H]1C(=O)N(C)[C@@H](CCCC)C(=O)N[C@@H](CC(C)C)C(=O)N[C@H](C(=O)NCC(N)=O)CSCC(=O)N[C@@H](Cc2ccc(O)cc2)C(=O)N(C)[C@@H](C)C(=O)N[C@@H](CC(N)=O)C(=O)N2CCC[C@H]2C(=O)NCC(=O)N[C@@H](CCC(N)=O)C(=O)N2C[C@H](O)C[C@H]2C(=O)N[C@@H](Cc2c[nH]c3ccccc23)C(=O)N[C@@H](CO)C(=O)N[C@@H](Cc2c[nH]c3ccccc23)C(=O)N1C [Example 5127] ({CH2CO}-Y[NMeA]NPGQ[Hyp]WSW[NMeNle][NMeNle]LCG-NH2; thioether N-14)
14 | 0.158 to 4.71 nM | 0.385 to 6.74 nM | – | – | CCCC[C@H]1C(=O)N(C)[C@@H](CCCC)C(=O)N[C@@H](CO)C(=O)N[C@H](C(=O)NCC(N)=O)CSCC(=O)N[C@@H](Cc2ccc(O)cc2)C(=O)N(C)[C@@H](C)C(=O)N[C@@H](CC(N)=O)C(=O)N2CCC[C@H]2C(=O)N[C@@H](CO)C(=O)N[C@@H](CCC(N)=O)C(=O)N2C[C@H](O)C[C@H]2C(=O)N[C@@H](Cc2c[nH]c3ccccc23)C(=O)N[C@@H](CO)C(=O)N[C@@H](Cc2c[nH]c3ccccc23)C(=O)N1C [Example 5128] ({CH2CO}-Y[NMeA]NPSQ[Hyp]WSW[NMeNle][NMeNle]SCG-NH2; thioether N-14)
